From patent US20240058349A1, “PI3K INHIBITORS FOR PROTECTION AGAINST GLUCOCORTICOID-INDUCED ATROPHY” (Northwestern University, priority 2020, published 2024)

Key:
[1] = system: GR; assay: Western blot of GR nuclear translocation; assay type: cell-based, human; details: CEM and Granta cells; LY294002 50 uM, AZD8055 1 uM, Dex 1 uM 24 h
Method: (§1) Western blot analysis. Western blot analysis was performed (Ref 10; incorporated by reference in its entirety). The following antibodies were used: GR (H-300) (Santa Cruz Biotechnology, Dallas, TX), phospho-GR (Ser211), phospho-4E-BP1 (Thr37/46), phospho-Akt (Ser473), Akt, 4E-BP1, cleaved and full-length PARP, GAPDH, HDAC1 (Cell Signaling, San Jose, CA), REDD1 (Proteintech Group, Rosemont, IL).
To identify the molecular mechanisms underlying GR functional changes induced by PI3K/Akt/mTOR inhibitors, the effect of these compounds on major steps in GR activation was assessed: GR phosphorylation at Ser211 and nuclear translocation that are critical for GR TA (Refs. 27,28; incorporated by reference in their entireties).

[2] = system: CEM cells; assay: MTT cell viability / cytotoxicity assay in CEM cells; assay type: cell-based, human; details: for IC50: Homo sapiens, CCRF-CEM, MTT assay, after 24 h treatment
Method: (§2) Cell cultures. Acute lymphoblastic leukemia cell line CEM and mantle cell lymphoma cell line Granta were obtained from ATCC and cultured in RPMI-1640 (Thermo Fischer) with 10% FBS (HyClone), sodium piruvate (10 mM), HEPES (10 mM) and antibiotics (referred thereafter as complete medium; Thermo Fischer) (Ref 14; incorporated by reference in its entirety). Peripheral blood samples were collected from healthy volunteers. The ethical Committee of the Blokhin Cancer Research Center approved this study, written informed consents were provided. Mononuclear cell fraction was isolated by 1.077 g/ml Ficoll-Isopaque density-gradient centrifugation and cultured in the complete medium. Cells were pretreated with Rapa (0.1-5 uM), LY294002 (10-100 uM), WM (1-10 uM) and AZD8055 (0.1-2 uM) or vehicle for 6 h, then were treated for Dex (1-10 uM) or vehicle for 24-144 h as indicated.
(§3) Analysis of cell viability and apoptosis induction. Cell viability was assessed using the MTT assay as follows: cells were incubated at 37° C. for 3 h with 20 ul of MTT solution (5 mg/ml). Supernatant was discarded and 150 μL of 100% DMSO was added to each well. Optical density was measured at 495 nm using a microplate reader MultiScan MCC 340 (Labsystems). The IC50 values was calculated using Quest Graph IC50 Calculator free software. Isobolograms were constructed (Ref 15; incorporated by reference in its entirety). IC50 values of PI3K inhibitors or Dex as single agents were plotted as 1 on the x and y axes, respectively. Various concentrations of PI3K inhibitors and for Dex were combined. The IC50 values for each compound in the combination were calculated and plotted as a percentage of each single drug. The disposition of data points below, above or on the line of additivity indicates synergy, antagonism or additivity, correspondingly.
(§4) PI3K/Akt/mTOR inhibitors were developed as anti-cancer drugs. To assess whether and how PI3K/Akt/mTOR inhibitors interacted with Dex anti-lymphoma effects, experiments were conducted to evaluate the efficacy of the combined treatment in vitro using such readouts as cell viability (MTT test) and apoptosis (PARP cleavage and sub-G1-phase cell population determined by FACS).

[3] = system: Granta cells; assay: MTT cell viability / cytotoxicity assay in Granta cells; assay type: cell-based, human; details: for IC50: Homo sapiens, MTT assay, after 24 h treatment
Method: as §2, §3, §4

[4] = system: CEM cells; assay: Apoptosis induction (PI staining sub-G1, PARP cleavage) in CEM cells; assay type: cell-based, human
Method: (§5) Apoptosis induction was evaluated using Western blot analysis of PARP cleavage and propidium iodine (PI) staining (Ref. 14; incorporated by reference in its entirety).
(§6) Cooperative anti-lymphoma effects of Dex and PI3K/Akt/mTOR inhibitors in vitro. PI3K/Akt/mTOR inhibitors were developed as anti-cancer drugs. To assess whether and how PI3K/Akt/mTOR inhibitors interacted with Dex anti-lymphoma effects, experiments were conducted to evaluate the efficacy of the combined treatment in vitro using such readouts as cell viability (MTT test) and apoptosis (PARP cleavage and sub-G1-phase cell population determined by FACS). The cytotoxic effect of Dex and PI3K inhibitors in wide concentration range (LY294002 1-500 uM, WM 0.1-25 uM, AZD8055 0.05-5 uM) was assessed (FIG. 8) and determined IC50 values after 24 h treatment (Table 8).
(§7) The effect of Dex combined with LY294002, AZD8055, WM or reference inhibitor Rapa was examined on apoptosis.

[5] = system: GR; assay: GRE.Luciferase reporter assay (GR transactivation) in CEM and Granta cells; assay type: cell-based, human
Method: Luciferase assay. GRE.Luc, NF-κB.Luc and control mCMV.Luc reporter cells were generated (Ref. 13; incorporated by reference in its entirety) using viral stocks obtained from Northwestern University SDRC DNA/RNA delivery Core. Luciferase activity was measured (Ref. 10; incorporated by reference in its entirety).
REDD1 is a GR target gene (Refs. 10,21; incorporated by reference in their entireties). To assess whether REDD1 inhibitors could modify GR function, LY294002, WM and AZD8055 effect on GR TA and TR was evaluated using CEM and Granta cells transduced with GRE.Luc and NF-kB.Luc reporters. […] Luciferase activity in both cell lines (FIG. 2A, C). […] Attenuation of GR TA was further confirmed by Q-PCR analysis of known GR-target genes including GR chaperone FKBP51 (Refs. 12,14; incorporated by reference in their entireties), mediator of Gcs anti-inflammatory effects GILZ (22,23), transcriptional activator KLF9 (24) and inhibitor of cytokine production MKP-1 (25) (FIG. 2B, D and FIG. 7A, B).

[6] = system: REDD1; assay: REDD1 mRNA/protein expression (Q-PCR, Western blot) in CEM and Granta cells; assay type: cell-based, human
Method: as §2, §1
RNA extraction and Q-PCR. […]

[7] = system: Granta cells; assay: Apoptosis induction (PI staining sub-G1, PARP cleavage) in Granta cells; assay type: cell-based, human
Method: as §5, §6, §7

[8] = system: Granta xenografts; assay: Granta lymphoma xenograft tumor growth study; assay type: in vivo, nu/nu mice; details: 27th day of treatment, vs control; i.p. every 48 h; LY294002 20 mg/kg, Rapa 5 mg/kg, Dex 1 mg/kg
Method: Xenograft tumor growth study. 10 million Granta cells in 200 ul BD Matrigel Matrix were subcutaneously injected into the right flank of 7 weeks old female nu/nu mice (Taconic). Animals were randomized and treated every 48 h with LY294002 (20 mg/kg), Rapamycin (5 mg/kg) of vehicle (30% PEG3350, 4% DMSO, 5% Tween 20 in PBS) followed by Dex (1 mg/kg) of vehicle (5% DMSO in PBS) 6 h later. Body weight was recorded twice a week. Tumor size was measured twice a week by digital calipers, drug interaction mode was calculated based on combination index method (Refs. 16,17; incorporated by reference in their entireties). Combination index (CI) of Dex+Rapa/LY294002 was calculated as ratio (observed fraction value of combination group)/(expected fraction value of combination group). The observed fractions were calculated as ratio (mean value of experiment)/(mean value of control), and the expected fractions values of combination effect between combined groups and single drug groups were calculated as expected fraction=(mean observed fraction of Dex)×(mean observed fraction of Rapa/LY294002). CI<1, CI=1 and CI>1 indicates a synergy, additive effect and antagonism, respectively.
Histological analysis and immunostaining. […] Ki67 and Caspase 3 were detected by immunostaining with antibodies to Ki-67 and Caspase-3 (Cell Signaling, San Jose, CA).
Morphometric analysis. Quantification of the epidermal width, dermal adipose thickness, bone thickness and cellularity of xenograft tissue was performed in sections stained with hematoxylin and eosin. At least 5 individual fields per slide of each individual sample/treatment (at least 50 images/treatment group) were analyzed using Axioplan2 microscope software (Carl Zeiss). […]
Animals were randomized to different treatment groups after tumor volume reached 50 mm3. […] All treatment regiments were only minimally toxic according to the steady increase in body weight monitored twice weekly (FIG. 11). Tumor volume was measured also twice a week (FIG. 12).

[9] = system: Dex-induced osteoporosis and skin atrophy; assay: Glucocorticoid-induced osteoporosis (GIOP) and skin atrophy model; assay type: in vivo, BALB/c female mice
Method: Glucocorticoid-induced osteoporosis (GIOP). GIOP was induced as described (18) by i.p. injection of Dex (10 mg/kg) in 12 weeks old BALB/c female mice (“Stolbovaya”, Moscow region, Russia) every 48 h for 5 weeks. 6 h prior to Dex, animals were treated i.p. with LY294002 (20 mg/kg), Rapamycin (5 mg/kg) of vehicle (30% PEG3350, 4% DMSO, 5% Tween-20 in PBS). Body weight was recorded twice a week.
Histological analysis and immunostaining. Xenograft and skin samples were fixed in formaldehyde, embedded in paraffin, sections were stained with hematoxylin and eosin. The bone samples after formaldehyde fixation were decalcinated in decalcination buffer (0.5 M EDTA, 0.7 mM NaOH, pH=7.0) for 14 days, then washed with PBS twice and further processed according to standard histology protocol. Ki67 and Caspase 3 were detected by immunostaining with antibodies to Ki-67 and Caspase-3 (Cell Signaling, San Jose, CA).
Morphometric analysis. Quantification of the epidermal width, dermal adipose thickness, bone thickness and cellularity of xenograft tissue was performed in sections stained with hematoxylin and eosin. At least 5 individual fields per slide of each individual sample/treatment (at least 50 images/treatment group) were analyzed using Axioplan2 microscope software (Carl Zeiss). The epidermal, dermal adipose, or bone thickness and cell density in treated animals is presented as % to control animals.
To test whether REDD1 inhibitors protect against systemic atrophic effects of Gcs, a model of Gcs-induced osteoporosis in Balb/c female mice was used (18) to assess atrophy in both bone and skin induced by high-dose i.p. Dex injections (10 mg/kg) every 48 h for 5 weeks. LY294002 (20 mg/kg), Rapa (5 mg/kg) or vehicle were injected 6 h prior animal treatment with Dex.

[10] = combination with Dex, IC50 after 24 h treatment
[11] = used alone for 6 days, LY294002 50 uM, AZD8055 1 uM, WM 10 uM, Dex 1 uM
[12] = systemic Dex 10 mg/kg every 48 h, 5 weeks, LY294002 20 mg/kg

In the case of `COc1ccc(-c2ccc3c(N4CCOC[C@@H]4C)nc(N4CCOC[C@@H]4C)nc3n2)cc1CO` [AZD8055], the GR nuclear import [1] is reported as “significantly prevented GR nuclear import”, the IC50 [2] is reported as 1.36 µM and the “type of interaction with Dex (isobologram analysis), CEM cells” value [2, 10] is reported as “mostly additive”. For the same compound, the IC50 [3] was 2.02 µM, the “type of interaction with Dex (isobologram analysis), Granta cells” value [3, 10] was “mostly additive” and the “apoptosis (sub-G1-phase cell population), used alone, CEM cells” value [4] was “stimulated apoptosis”. For the same compound, the “Dex-induced GRE.Luciferase activity” value ([5]; 6 h pre-treatment, Dex 1 uM 24 h) was “inhibited Dex-induced GRE. Luciferase activity”, the “basal GR activity (GRE.Luciferase)” value ([5]; applied individually) was “negatively affected basal GR activity” and the “effect on REDD1 induction by Dex” value ([6]; CEM and Granta cells, 6 h pre-treatment (LY294002 50 uM, WM 10 uM, AZD8055 1 uM), then Dex 24 h) was “prevented REDD1 induction”. For the same compound, the “basal REDD1 expression” value ([6]; inhibitor without Dex, mRNA in CEM cells, protein more pronounced in Granta cells) was “blocked basal and glucocorticoid-induced REDD1 expression” and the “apoptosis (sub-G1-phase cell population), used alone, Granta cells” value [7] was “stimulated apoptosis”.

In the case of `C[C@@H]1C[C@H]2[C@@H]3CCC4=CC(=O)C=C[C@]4(C)[C@@]3(F)[C@@H](O)C[C@]2(C)[C@@]1(O)C(=O)CO` [Dexamethasone], the “decrease of CEM survival” value [2, 11] is reported as 50-55%, the “decrease of Granta survival” value [3, 11] is reported as 50-55% and the “decrease in tumor volume” value [8] is reported as about 40%. The femoral bone thickness ([9]; Dex 10 mg/kg vs control) was “tendency in decrease”, the “reduction in dermal adipose thickness” value [9, 12] was about 70% and the “reduction in epidermal thickness” value [9, 12] was about 50%.

In the case of `O=c1cc(N2CCOCC2)oc2c(-c3ccccc3)cccc12` [LY294002], the IC50 [2] is reported as 62 µM, the IC50 [3] is reported as 77.6 µM and the “decrease in tumor volume” value [8] is reported as about 70%.

For `CO[C@H]1C[C@@H]2CC[C@@H](C)[C@@](O)(O2)C(=O)C(=O)N2CCCC[C@H]2C(=O)O[C@H]([C@H](C)C[C@@H]2CC[C@@H](O)[C@H](OC)C2)CC(=O)[C@H](C)/C=C(\C)[C@@H](O)[C@@H](OC)C(=O)[C@H](C)C[C@H](C)/C=C/C=C/C=C/1C` [Rapamycin], the “decrease in tumor volume” value [8] was about 75%.

Work on `COC[C@H]1OC(=O)c2coc3c2[C@@]1(C)C1=C(C3=O)[C@@H]2CCC(=O)[C@@]2(C)C[C@H]1OC(C)=O` [Wortmannin] yielded an IC50 [2] of 9.14 µM and an IC50 [3] of 11.9 µM.
